Series [1] addresses T1, human NPFFR1 (hNPFFR1) receptor (Homo sapiens, UniProt Q9GZQ6).
T1 construct: expressed in transfected cells; host or cells: HEK-293 T cells, transient co-transfection with polyethylenimine
Kind of series: Human NPFFR1 evaluation using BRET biosensors (antagonist IC50). The series is classed as cell-based. Conditions: hNPFFR1 transiently over-expressed in HEK-293 T cells; BRET signal; stimulation by EC80 RFRP-3. The procedure:
Compounds of the present invention were tested successively for their agonist and antagonist activities on human NPFFR1 (hNPFFR1) receptor transiently over-expressed in HEK-293 T cells. Compounds exert agonist activity if, by themselves in absence of neuropeptide RFRP-3 (also named NPVF) they activate hNPFFR1; and they exert antagonist activity if they decrease the action of RFRP-3 on the receptor.
The assay used to measure compound activity is based on BRET (Bioluminescence Resonance Energy Transfer) biosensors and is designed to monitor the plasma membrane translocation of protein that interacts with specific Ga subunit. The specific effector (luciferase tagged: BRET donor) recruited at the membrane will be in close proximity to a plasma membrane anchor (GFP tagged: BRET acceptor) to induce a BRET signal. Biosensors are described in the patent application WO 2016/041093 A1 (Biosensors for monitoring biomolecule localization and trafficking in cells).
HEK-293 T cells are maintained in Dulbecco's Modified Eagle's Medium supplemented with 10% Foetal Calf Serum, 1% Penicillin/Streptomycin at 37° C./5% CO2.
Cells are co-transfected using polyethylenimine (25 kDa linear) with four DNA plasmids encoding: hNPFFR1, GαoB, a Gi family specific intracellular effector fused to luciferase (BRET donor), a plasma membrane effector fused to GFP (BRET acceptor). After transfection, cells are cultured for 48 h at 37° C./5% CO2.
Receptor activity is detected by changes in BRET signal.
On the day of the assay, cells are detached using trypsin 0.05%, resuspended in assay buffer (1.8 mM CaCl2, 1 mM MgCl2, 2.7 mM KCl, 137 mM NaCl, 0.4 mM NaH2PO4, 5.5 mM D-Glucose, 11.9 mM NaHCO3, 25 mM Hepes) and seeded in 384 well plate at a density of 20,000 cells per well. Then, plates are equilibrated 3.5 hours at 37° C. before adding compounds.
Compounds and luciferase substrate are added to the cells using an automated device (Freedom Evo®, Tecan) and BRET readings are collected on EnVision (PerkinElmer) with specific filters (410 nm BW 80 nm, 515 nm BW 30 nm).
Agonist and antagonist activities of compounds are consecutively evaluated on the same cell plate. Agonist activity is first measured after 10 minutes incubation with compound alone on the cells. Then, cells are stimulated by an EC80 RFRP-3 concentration and luminescence is recorded for additional 10 minutes. EC80 RFRP-3 concentration is the concentration giving 80% of the maximal RFRP-3 response. Agonist or antagonist activities are evaluated in comparison to basal signals evoked by assay buffer or EC80 RFRP-3 alone, respectively.
For IC50 determination, a dose-response test is performed using 20 concentrations (ranging over 6 logs) of each compound. Dose-response curves are fitted using the sigmoidal dose-response (variable slope) analysis in GraphPad Prism software (GraphPad Software) and IC50 of antagonist activity is calculated. Dose-response experiments are performed in duplicate, in two independent experiments.
Background: In BRET a luciferase serves as donor, and the signal depends on an acceptor being close.

T1 sequence (Q9GZQ6 whole entry): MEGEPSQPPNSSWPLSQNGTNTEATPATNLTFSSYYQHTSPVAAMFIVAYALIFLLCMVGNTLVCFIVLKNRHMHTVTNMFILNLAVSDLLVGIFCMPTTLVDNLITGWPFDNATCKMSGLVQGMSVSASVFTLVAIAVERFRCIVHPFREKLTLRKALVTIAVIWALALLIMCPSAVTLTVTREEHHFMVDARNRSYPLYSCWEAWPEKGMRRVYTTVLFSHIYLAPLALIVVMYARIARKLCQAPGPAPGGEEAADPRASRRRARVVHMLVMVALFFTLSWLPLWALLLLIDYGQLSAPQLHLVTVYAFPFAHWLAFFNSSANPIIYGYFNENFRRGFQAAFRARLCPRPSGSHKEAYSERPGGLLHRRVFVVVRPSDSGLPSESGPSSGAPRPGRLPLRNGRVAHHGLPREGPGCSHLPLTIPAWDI

As usually defined, the melting point is the temperature, or range, at which the solid turns liquid. The IC50 is the point on the concentration scale where inhibition reaches its midpoint. High values mean lower potency, low ones higher potency. Take `Cl.Cn1nccc1-c1ccccc1-c1ccc(N)nc1N` [Example 48, 3-(2-(1-methyl-1H-pyrazol-5-yl)phenyl)pyridine-2,6-diamine]: the melting point was more than 250 °C. In series [1], the half-inhibitory concentration (IC50) is more than 1000 nM.
Take `Cn1ccc2cccc(-c3ccc(N)nc3N)c21` [Example 49, 3-(1-methyl-1H-indol-7-yl)pyridine-2,6-diamine]: the melting point is 100 to 117 °C. Besides, in series [1], the IC50 is less than 100 nM.
As to `Cl.Nc1ccc(-c2cccc3ccoc23)c(N)n1` [Example 50, 3-(benzofuran-7-yl)pyridine-2,6-diamine], the melting point is more than 250 °C. Besides, the IC50 in series [1] is 100 to 1000 nM.
For the molecule `Cl.Nc1ccc(-c2cccc3sccc23)c(N)n1` [Example 51, 3-(benzo[b]thiophen-4-yl)pyridine-2,6-diamine], the melting point was 100 to 120 °C. The molecule further displayed an IC50 in series [1] of less than 100 nM.
On to `Cl.Nc1ccc(-c2cc(F)cc3cccnc23)c(N)n1` [Example 52, 3-(6-fluoroquinolin-8-yl)pyridine-2,6-diamine], for which the melting point was more than 250 °C. In addition, the concentration for half-maximal inhibition (IC50) in series [1] was less than 100 nM.
For `Cc1cc(-c2ccc(N)nc2N)c2ncccc2c1.Cl` [Example 53, 3-(6-methylquinolin-8-yl)pyridine-2,6-diamine] the same measures were 180 to 200 °C and less than 100 nM.
For `Cl.Nc1ccc(-c2ccc(C(F)(F)F)c3cccnc23)c(N)n1` [Example 54, 3-(5-(trifluoromethyl)quinolin-8-yl)pyridine-2,6-diamine] the same measures were more than 250 °C and more than 1000 nM.
Consider `Cl.Nc1ccc(-c2ccc(F)c3cccnc23)c(N)n1` [Example 55, 3-(5-fluoroquinolin-8-yl)pyridine-2,6-diamine], for which the melting point lay in the range of 73 to 81 °C. The molecule further had an IC50 in series [1] of less than 100 nM.
In turn, `Cl.Nc1ccc(-c2c(F)ccc3cccnc23)c(N)n1` [Example 57, 3-(7-fluoroquinolin-8-yl)pyridine-2,6-diamine] had a melting point of 190 to 220 °C. This molecule came in with an IC50 in series [1] of less than 100 nM.
For `Cl.Nc1ccc(-c2cccc3cc(F)cnc23)c(N)n1` [Example 58, 3-(3-fluoroquinolin-8-yl)pyridine-2,6-diamine] the same measures were 114 to 116 °C and less than 100 nM.
On to `Cl.Nc1ccc(-c2c(F)cc(F)c3cc(F)cnc23)c(N)n1` [Example 61, 3-(3,5,7-trifluoroquinolin-8-yl)pyridine-2,6-diamine], for which the melting point is more than 250 °C. For the same molecule, the IC50 in series [1] was less than 100 nM.
For `Cl.Nc1ccc(-c2c(F)ccc3ccc(O)nc23)c(N)n1` [Example 62, 8-(2,6-diaminopyridin-3-yl)-7-fluoroquinolin-2-ol] the same measures were 210 to 230 °C and less than 100 nM.
For `Cl.Nc1ccc(-c2c(F)c(F)cc3ccc(O)nc23)c(N)n1` [Example 64, 8-(2,6-diaminopyridin-3-yl)-6,7-difluoroquinolin-2-ol] the same measures were more than 250 °C and less than 100 nM.
For `CCc1nc(N)ccc1-c1c(F)ccc2cccnc12.Cl` [Example 65, 6-ethyl-5-(7-fluoroquinolin-8-yl)pyridin-2-amine] the same measures were 150 to 195 °C and less than 100 nM.
With `CCc1nc(N)ccc1-c1cccc2c1OCCC2.Cl` [Example 66, 5-(chroman-8-yl)-6-ethylpyridin-2-amine], the melting point is 180 to 192 °C. Moreover, the IC50 in series [1] was less than 100 nM.
Molecule `CC(C)Cc1nc(N)ccc1-c1cccc2cccnc12.Cl` [Example 67, 6-isobutyl-5-(quinolin-8-yl)pyridin-2-amine] gave a melting point of 100 to 140 °C. The half-maximal inhibitory concentration (IC50) in series [1] was less than 100 nM.
`Cl.Nc1ccc(-c2cccc3cccnc23)c(CC2CCC2)n1` [Example 68, 6-(cyclobutylmethyl)-5-(quinolin-8-yl)pyridin-2-amine] came in with a melting point of 120 to 180 °C. In addition, the IC50 in series [1] was less than 100 nM.
For `Cl.Nc1ccc(-c2c(F)ccc3cccnc23)c(CCC(F)(F)F)n1` [Example 69, 5-(7-fluoroquinolin-8-yl)-6-(3,3,3-trifluoropropyl)pyridin-2-amine] the same measures were 85 to 145 °C and 100 to 1000 nM.
The molecule `CC(C)Cc1nc(N)ccc1-c1c(F)ccc2cccnc12.Cl` [Example 70, 5-(7-fluoroquinolin-8-yl)-6-isobutylpyridin-2-amine] came in with a melting point of 130 to 170 °C. Besides, the IC50 in series [1] is less than 100 nM.
Consider `Cl.Nc1ccc(-c2c(F)ccc3cccnc23)c(CCCC(F)(F)F)n1` [Example 71, 5-(7-fluoroquinolin-8-yl)-6-(4,4,4-trifluorobutyl)pyridin-2-amine], for which the melting point was in the range of 70 to 130 °C. This molecule came in with an IC50 in series [1] of less than 100 nM.
For `Cl.Nc1ccc(-c2c(F)ccc3cccnc23)c(CC2CC2)n1` [Example 72, 6-(cyclopropylmethyl)-5-(7-fluoroquinolin-8-yl)pyridin-2-amine], in that order: 170 to 207 °C and less than 100 nM.
For `CC(C)CCc1nc(N)ccc1-c1c(F)ccc2cccnc12.Cl` [Example 73, 5-(7-fluoroquinolin-8-yl)-6-isopentylpyridin-2-amine] the same measures were 100 to 140 °C and less than 100 nM.
For `CCc1nc(N)ccc1-c1cc(F)cc2cccnc12.Cl` [Example 74, 6-ethyl-5-(6-fluoroquinolin-8-yl)pyridin-2-amine], in that order: 50 to 56 °C and less than 100 nM.
Consider `CCc1nc(N)ccc1-c1ccc(C(F)(F)F)c2cccnc12.Cl` [Example 75, 6-ethyl-5-(5-(trifluoromethyl)quinolin-8-yl)pyridin-2-amine], for which the melting point lay in the range of 120 to 137 °C. This molecule showed an IC50 in series [1] of more than 1000 nM.
For `CCc1nc(N)ccc1-c1c(F)ccc2ccc(C)nc12.Cl` [Example 76, 6-ethyl-5-(7-fluoro-2-methylquinolin-8-yl)pyridin-2-amine], in that order: 95 to 120 °C and less than 100 nM.
For `CCc1nc(N)ccc1-c1cc(C)cc2cccnc12.Cl` [Example 77, 6-ethyl-5-(6-methylquinolin-8-yl)pyridin-2-amine], in that order: 100 to 140 °C and less than 100 nM.
For `CCc1nc(N)ccc1-c1ccccc1-c1ccc(N2CCCCC2)nc1.Cl` [Example 80, 6-ethyl-5-(2-(6-(piperidin-1-yl)pyridin-3-yl)phenyl)pyridin-2-amine] the same measures were 50 to 80 °C and 100 to 1000 nM.
Take `CCc1nc(N)ccc1-c1ccccc1-c1ccc(C(F)(F)F)nc1.Cl` [Example 81, 6-ethyl-5-(2-(6-(trifluoromethyl)pyridin-3-yl)phenyl)pyridin-2-amine]: the melting point was more than 250 °C. Also, the IC50 in series [1] was 100 to 1000 nM.
Consider `CCc1nc(N)ccc1-c1ccc(F)cc1-c1ccc(N2CCOCC2)nc1.Cl` [Example 82, 6-ethyl-5-(4-fluoro-2-(6-morpholinopyridin-3-yl)phenyl)pyridin-2-amine], for which the melting point lay within 54 to 70 °C. For the same molecule, the half-inhibitory concentration (IC50) in series [1] was 100 to 1000 nM.
For `CCc1nc(N)ccc1-c1cc(F)ccc1-c1ccc(N2CCOCC2)nc1.Cl` [Example 83, 6-ethyl-5-(5-fluoro-2-(6-morpholinopyridin-3-yl)phenyl)pyridin-2-amine], in that order: 85 to 100 °C and 100 to 1000 nM.
For the molecule `CCc1nc(N)ccc1-c1ccccc1-c1ccc(N2CCOCC2)nc1.Cl` [Example 84, 6-ethyl-5-(2-(6-morpholinopyridin-3-yl)phenyl)pyridin-2-amine], the melting point was 95 to 110 °C. Further, the IC50 in series [1] was less than 100 nM.
For `CCc1nc(N)ccc1-c1ccccc1-c1cncc(C)c1.Cl` [Example 85, 6-ethyl-5-(2-(5-methylpyridin-3-yl)phenyl)pyridin-2-amine], in that order: 120 to 150 °C and 100 to 1000 nM.

For the origin of these results see patent publication US20220298135A1, “5-HETEROARYL-PYRIDIN-2-AMINE COMPOUNDS AS NEUROPEPTIDE FF RECEPTOR ANTAGONISTS” (Domain Therapeutics, priority 2019, published 2022).
